Source: US12350273B2, “Treatment of SMA” (Hoffmann-La Roche Inc., priority 2017, dated 2025)

Legend:
Cynomolgus monkey iPSCs = assay: Cell cycle analysis of Cynomolgus monkey iPSCs (flow cytometry); type: cell-based; conditions: Cynomolgus monkey iPSCs, 24 h, 30 nM (positive control)
Method: (§1) For the analysis of the cell cycle, monkey stem cells were detached with Accutase (Stem Cell Technologies) and plated at 15000 cells/cm2 in 6 well plates coated with Matrigel (BD Biosciences) in MT medium supplemented with 10 ng/ml ActivinA, 15 ng/ml FGF2, and 10 μM Rock inhibitor. Cells were expanded for 1 day and then synchronized by starvation for 7 h in MT medium without supplements FGF2 and ActivinA. Before flow cytometry, cells were incubated for 24 h with fresh MT medium containing supplements FGF2 and ActivinA and test items at 80 nM, 400 nM, and 2000 nM or 30 nM rapamycin as positive control to arrest cells in G1 phase. Human stem cells were detached with Accutase (Stem Cell Technologies) and plated at 40000 cells/cm2 in 6 well plates coated with Matrigel (BD Biosciences) in mTeSR1 supplemented with 10 μM Rock Inhibitor Y-27632 (Sigma-Aldrich). Cells were expanded for 3 days with daily medium change. Since human iPSCs lose their properties during starvation by growth factor withdrawal, stem cells were synchronized with 200 ng/ml Nocodazole (Sigma-Aldrich) for 5 h and washed subsequently 2 times with mTesR1 Medium. Before flow cytometry, cells were incubated for 24 h with fresh TesR1 medium containing test items at 80 nM, 400 nM, and 2000 nM or 30 nM rapamycin as positive control to arrest cells in G1 phase.
(§2) For cell cycle analysis, human iPSCs were washed with PBS, detached with Accutase (Stem Cell Technologies) and collected by centrifugation. Cells were stained for 1 h at 37° C. with 600 ul of 7 AAD/Saponin/RNAse mix ([…] 7 AAD (#559925, BD), 50 μg/ml RNase, and 0.03% Saponin dissolved in FACS buffer (PBS, 5% FBS, 10 mM Hepes)). Cynomolgus monkey iPSCs were washed with PBS, detached with Accutase (Stem Cell Technologies) and collected by centrifugation. Cells were stained for 30 min at 37° C. in 300 ul standard MT medium (with FGF2 and ActivinA) containing 1 ul Vybrant Dye Cycle Violet Stain (#V35003, 1000× stock, Invitrogen) per ml medium. Additionally 2 ul 7 AAD (50 μg/ml 7 AAD) were added without permeabilization to label dead cells; cells were incubated for 10 min at 37° C. Flow cytometry analysis was performed using a Canto II cytometer (BD Biosciences) and data were analysed with the FlowJo software.

human iPSCs = assay: Cell cycle analysis of human iPSCs (flow cytometry); type: cell-based; conditions: 24 h, 30 nM (positive control)
Method: as §1, §2

CO[C@H]1C[C@@H]2CC[C@@H](C)[C@@](O)(O2)C(=O)C(=O)N2CCCC[C@H]2C(=O)O[C@H]([C@H](C)C[C@@H]2CC[C@@H](O)[C@H](OC)C2)CC(=O)[C@H](C)/C=C(\C)[C@@H](O)[C@@H](OC)C(=O)[C@H](C)C[C@H](C)/C=C/C=C/C=C/1C [Rapamycin, reference compound]
percentage of events in G1 phase, mean (Cynomolgus monkey iPSCs): 41.7%
percentage of events in G2 phase, mean (Cynomolgus monkey iPSCs): 45.6%
percentage of events in S phase, mean (Cynomolgus monkey iPSCs): 12.7%
percentage of events in G1 phase, mean (human iPSCs): 58.3%
percentage of events in G2 phase, mean (human iPSCs): 30.5%
percentage of events in S phase, mean (human iPSCs): 11.2%
